For one experiment, the target named is T1, CDK1/cyclinB1 (Homo sapiens, UniProt P06493).
T1 construct: made in house
As to the kind of experiment: CDK1/cyclinB histone H1 phosphorylation assay. It is filed as biochemical. As to conditions: 0.1 μM ATP, histone H1 substrate. As for the experimental part: To determine the effect of SCY on CDK1/cyclinB1 kinase activity, the following assay was conducted. Baculovirus vectors expressing CDK1 and cyclinB1, obtained from Dr. David Morgan of the University of California San Francisco, were expressed and purified by the method described in Desai, et al. (1992) Mol. Cell Biol. 3:571-582, which is herein incorporated by reference, to 80% purity as determined by SDS-PAGE analysis and Coomassie Blue staining. CDK1/cyclinB1 kinase activity was analyzed in a 96-well flashplate assay using 2.0 μg/well bovine histone H1 as a substrate. Reactions were run in 50 μl with 0.25 μg of CDK1/cyclinB1 complex, in reaction buffer (50 mM HEPES, pH 7.4, 10 mM MgCl2, 0.1 μM ATP, 1 mM DTT and 0.5 μCi of [γ^33-P] ATP (final reaction concentrations)), and SCY (1 nM to 10 μM final reaction concentration). The positive control used was […] hymenialdisine (final concentration) in a final vehicle concentration of 1% DMSO.
Reactions were initiated with the addition of ATP and allowed to proceed for 10 minutes at room temperature. The reactions were stopped by washing the plate five times with 300 μl/well of PBS. The plate was then counted on a Packard Top-Count.

Experiment [1] relates to PMA-induced mouse ear edema. As to the kind of experiment: PMA-induced mouse ear edema assay. It is filed as in vivo. As to conditions: topical application. As for the experimental part:
The efficacy of a scytoneman compound as an anti-inflammatory agent may be established by the following assay. The scytoneman compound is topically applied in acetone to the inside pinnae of the ears of mice in a solution comprising an irritant such as the edema-causing irritant, Phorbol 12-myristate 13-acetate (PMA). Specifically, 2 μg/ear of PMA alone or in combination with 50 μg/ear of the test compound, scytonemin, was applied to the left ears (5 mice per treatment group) and acetone was applied to all right ears. After 3 hours, 20 minutes incubation, the mice were sacrificed, the ears removed and bores taken and weighed. Edema was measured by subtracting the weight of the right ear (acetone control) from the weight of the left ear (treated). Results were recorded as % decrease (inhibition) or % increase (potentiation) in edema relative to the PMA control group edema.

Experiment [2] deals with CAP-induced mouse ear edema. The experiment is described as follows: Capsaicin (CAP)-induced mouse ear edema assay. It is filed as in vivo. As for the experimental part: (§1) Various dilutions of test compounds were topically applied in acetone to the inside and outside surfaces of the left ears of mice in a solution comprising 0.1 μg RTX or 250 μg CAP per ear. A control, acetone, was applied to all right ears. After a 30 minute incubation, the mice were sacrificed, the ears removed, and bores taken and weighed.
(§2) For systemic studies, the test compounds were administered by intraperitoneal injection in a vehicle comprising 20% propylene glycol, 80% saline and 3 drops TWEEN-20 30 minutes or 1 hour prior to topical application of RTX or CAP. Control animals were injected with vehicle only. 0.1 μg RTX or 250 μg CAP was applied to the left ears and acetone was applied to the right ears. After 30 minutes of incubation, the mice were scarified, ears removed and bores taken and weighed.
(§3) Edema was measured by subtracting the weight of the right ear (control) from the weight of the left ear. The results were recorded as % decrease (inhibition) or % increase (potentiation) in edema relative to the control group edema.

For experiment [3], the system named is RTX-induced mouse ear edema. The experiment is described as follows: Resiniferatoxin (RTX)-induced mouse ear edema assay. It is filed as in vivo. As to conditions: systemic. The protocol: as §1, §2, §3
The test system of experiment [4] is tissue myeloperoxidase activity. As to the kind of experiment: Myeloperoxidase (MPO) enzyme assay of mouse ear biopsies. Format: in vivo. As to conditions: topical. From the text:
To determine neutrophil influx into inflammed tissue region, the following assay may be conducted. Generally, myeloperoxidase (MPO), a neutrophil-specific marker released from primary granules, is indicative of the extravasation of pro-inflammation neutrophils from blood into the skin. Thus, to determine whether a test compound prevents, inhibits, modulates or attenuates inflammation related to an immunogenic inflammatory pathway or neutrophil influx, ear biopsies from treated and untreated mouse ears may be extracted and quantitated according to a modified method of Bradley, P.O., et al. (1982) J. Invest Dermatology 78:206-209, which is herein incorporated by reference. Specifically, ear bores from each treatment group from mouse ear edema assays from part A above were pooled and homogenized in 80 mM sodium phosphate buffer (pH 5.4) comprising 0.5% hexadecyltrimethylammonium bromide in a siliconized glass test tube for 1 minute at 0° C. using a Brinkman Polytron. The mixtures were centrifuged at 10,000×g at 4° C. for 30 minutes. 10 μl samples from each group were then assayed in a 96-well microtiter plate. The assay was initiated by adding 250 μl of o-dianisi-dine/phosphate reagent (0.28 mg of dianisidine added to 1 ml of 50 mM sodium phosphate comprising 0.0015 H2O2) to each well. After a 30 minute incubation at 37° C., the plates were read at 450 nm on a Molecular Devices microplate reader. Diluted control biopsies were utilized to develop a standard curve. Optical density values from drug-treated groups were compared to control groups to determine the % of control values of enzyme activity.

The results in this text go back to patent publication US6495588B2, “Scytonemin and methods of using thereof” (The Regents of the University of California, priority 2000, dated 2002).

T1 sequence (P06493 whole entry): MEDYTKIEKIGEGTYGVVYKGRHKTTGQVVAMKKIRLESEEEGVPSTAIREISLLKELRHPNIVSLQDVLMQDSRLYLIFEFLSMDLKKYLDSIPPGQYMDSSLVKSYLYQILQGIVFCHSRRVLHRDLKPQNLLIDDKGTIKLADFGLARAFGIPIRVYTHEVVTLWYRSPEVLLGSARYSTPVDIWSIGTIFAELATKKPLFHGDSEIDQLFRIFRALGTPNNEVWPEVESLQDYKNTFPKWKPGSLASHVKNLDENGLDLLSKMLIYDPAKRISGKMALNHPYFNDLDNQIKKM
T1 sequence (P14635 whole entry partner): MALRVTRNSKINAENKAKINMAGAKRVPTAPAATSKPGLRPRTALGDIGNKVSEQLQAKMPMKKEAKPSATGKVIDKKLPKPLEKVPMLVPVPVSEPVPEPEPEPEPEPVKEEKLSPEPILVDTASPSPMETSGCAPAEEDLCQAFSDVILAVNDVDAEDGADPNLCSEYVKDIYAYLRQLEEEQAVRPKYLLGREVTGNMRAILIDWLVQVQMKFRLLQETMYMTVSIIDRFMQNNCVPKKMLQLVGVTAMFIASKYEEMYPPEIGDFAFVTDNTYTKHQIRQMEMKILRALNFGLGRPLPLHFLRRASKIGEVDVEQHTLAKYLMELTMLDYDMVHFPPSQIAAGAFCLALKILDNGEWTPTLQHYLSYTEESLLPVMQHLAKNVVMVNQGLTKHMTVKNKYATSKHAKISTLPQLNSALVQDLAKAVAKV

As usually defined, the IC50 is the midpoint of a concentration-inhibition curve. High values mean weaker potency in that assay, low ones greater potency in that assay. As for scytonemin, the IC50 on CDK1/cyclinB1 was around 3000 nM. Besides, the “ED50 PMA-induced mouse ear edema and tissue myeloperoxidase activity” value in experiment [1] is given as “about 10.9±5 μg per ear”. Moreover, the inhibition of edema entry was “no inhibition of edema” in experiment [2] (systemic 10 mg/kg, 30 minutes before topical CAP) and around 24% in experiment [2] (topical 500 μg/ear against 250 μg/ear CAP). Further, the entries for the “inhibition of topical RTX-induced mouse ear edema” value in experiment [3] (25 mg/kg), in experiment [3] (50 mg/kg) and in experiment [3] (150 mg/kg) were 15%, 18% and 47%, respectively. Moreover, the “inhibition of MPO activity” value was “about 19%” in experiment [4] (1 μg scytonemin), around 18% in experiment [4] (5 μg scytonemin), around 90% in experiment [4] (10 μg scytonemin (fourth dose listed)) and around 68% in experiment [4] (10 μg scytonemin (third dose listed)).
